Laboratory results reported in patent publication US20110020312A1, “METHODS FOR TREATMENT OF METABOLIC DISORDERS USING EPIMETABOLIC SHIFTERS, MULTIDIMENSIONAL INTRACELLULAR MOLECULES, OR ENVIRONMENTAL INFLUENCERS” (priority 2009, published 2011).

Key:
SK-MEL-28 mitochondria = test: LC-MS/MS quantification of Q10, Q10H2 and Q9 in mitochondrial enriched samples; assay type: cell-based; conditions: for Q10 in mitochondrial enriched sample: 100 μM Q10 in the media; for increase in mitochondrial Q10 levels: 100 μM Q10
Method: To control for sample variance in total material, the levels of cholesterol was also measured to confirm that the differences were not due to sample size errors.

a variety of cell types = test: Western blot analysis (Bcl-xL, Vimentin, oxidative phosphorylation and mitochondrial membrane proteins); assay type: cell-based; conditions: 50 or 100 μM Q10
Method: Approximately 50 μg of protein were assayed per sample by immunoblotting. All treatments were run in triplicate with controls. […] The primary antibodies were incubated overnight at 4 degrees C. in a 5% BSA and TBST solution. Secondary antibodies were incubated for one hour at 4 degrees. All antibodies were purchased from Cell Signaling Technology. Antibodies were used at a ratio of 1:1000, with the exception of PActin at a ratio of 1:5000. Blots were developed and results were quantified using the NIH Java based densitometer analysis software Image J. All blots were also probed for and normalized to their respective PActin expression.
The first experiment processed and evaluated by Western blot and 2-D gel electrophoresis was carried out on the skin cancer cell line SKMEL-28.
A variety of cell types were evaluated by Western blot analysis against an antibody for Bcl-xL (FIG. 14), an antibody for Vimentin (FIG. 15), a series of antibodies for mitochondrial oxidative phosphorylation function (FIGS. 16-21) and against a series of antibodies related to mitochondrial membrane integrity (FIGS. 22-27).

[1] = test system: Lactate Dehydrogenase (LDH); test: Western blot, Lactate Dehydrogenase levels; assay type: cell-based, human
Method: The samples were processed and run on a 4-12% Bis-Tris Novex NuPAGE gel as described above. The gels were run, transferred and stained essentially as described above.
After transfer each blot was dried for 15-20 minutes, activated with methanol for 5 seconds, washed with water for 5 minutes, and TBST for 15 minutes. The blots were blocked for 1 hour with 5% blocking reagent in TBS-T at room temperature and then washed 3 times with TBS-T (1×-15′; 2×5′ each) and probed with the primary antibody for Lactate Dehydrogenase (abcam ab2101; polyclonal) in 5% BSA (at 1:1000 dilutions) by incubation overnight at 4 deg C. with shaking. After the overnight incubation with primary antibody for Lactate Dehydrogenase, the blots were washed 3 times with TBS-T (1×-15′; 2×5′ each) and probed with the secondary antibody (rabbit antigoat; 1:10,000 dilution) for 1 h at room temperature. After 1 h of incubation with secondary antibodies, the blots were washed 3 times with TBS-T (1×-15′; 2×5′ each) and then incubated with ECF reagent for 5 mins and then each blot scanned with 5100 Fuji Laser scanner at 25 uM resolution, 16 bit, green laser, at 400V and at 500 V.
The PACA2 samples were processed and the gels were run, transferred, stained and scanned essentially as described above.
The levels of LDH and PDH were determined by probing the blots successively with primary antibodies for LDH and PDH, essentially as described above.
The above blots were stripped by incubating for 30 minutes with methanol, followed by two 10 minute washes with TBS-T, then 30 minutes of incubation with Stripping buffer at 50 deg C., and followed by two washes with 100 ml or more of TBS-T for 30′ each. The blots were scanned in laser scanner to check for complete stripping. The blots were activated with methanol for 5 seconds, washed with water for 5 minutes, and TBST for 15 minutes. The blots were blocked for 1 hour with 5% blocking reagent in TBS-T at room temperature and then washed 3 times with TBS-T (1×-15′; 2×5′ each) and probed with the primary antibody for LDH or Bik in 5% BSA in TBS-T by incubation overnight at 4 deg C. with gentle shaking. The primary antibody for LDH was from Abcam ab2101; antigoat; at 1:1000 dilution. The primary antibody for Bik was from Cell Signaling #9942; antirabbit; at 1:1000 dilution. After incubation with primary antibodies, the membranes were washed 3 times with TBS-T (1×-15′; 2×5′ each) and probed with the secondary antibody (LDH antigoat; Jackson Laboratories) and Bik antirabbit; 1:10,000 dilution) for 1 h on the orbital tilting shaker at room temperature. After 1 h of incubation, the blots were washed 3 times with TBS-T (1×-15′; 2×5′ each) and incubated with ECF reagent for 5 minutes and then each blot scanned with 5100 Fuji Laser scanner at 25 uM resolution, 16 bit, green laser, at 400V and at 500 V.
The above blots were stripped by incubating for 30 minutes with methanol, followed by two 10 minute washes with TBS-T, then 30 minutes of incubation with stripping buffer at 50 deg C., and followed by two washes with 100 ml or more of TBS-T for 30′ each. The blots were activated with methanol for 5 seconds, washed with water for 5 minutes, and TBST for 15 minutes. The blots ere blocked for 1 hour with 5% blocking reagent in TBS-T at room temperature and then washed 3 times with TBS-T (1×-15′; 2×5′ each) and probed with the primary antibody for LDH in 5% BSA or 5% milk by incubation overnight at 4 deg C. with gentle shaking. The primary antibody for LDH 080309b1 (Abcam ab2101; antigoat) was at 1:1000 dilution in 5% BSA. The primary antibody for LDH 080309b2 (Abcam ab2101; antigoat) was at 1:1000 dilution in 5% milk. After incubation with primary antibodies, the membranes were washed 3 times with TBS-T (1×-15′; 2×5′ each) and probed with the secondary antibody (Jackson Immuno Research antigoat; 1:10,000 dilution; 305-055-045) for 1 h. […]

Structure (SMILES): COC1=C(OC)C(=O)C(C/C=C(\C)CC/C=C(\C)CC/C=C(\C)CC/C=C(\C)CC/C=C(\C)CC/C=C(\C)CC/C=C(\C)CC/C=C(\C)CC/C=C(\C)CCC=C(C)C)=C(C)C1=O [Q10, Coenzyme Q10]
- Q10 in mitochondrial enriched sample (SK-MEL-28 mitochondria; 6 hr): 7.21 ng/Sample
- increase in mitochondrial Q10 levels (SK-MEL-28 mitochondria; 19 hours): ~3 fold
- Q10 in mitochondrial enriched sample (SK-MEL-28 mitochondria; 19 hr): 16.77 ng/Sample
- increase in mitochondrial Q10 levels (SK-MEL-28 mitochondria; 48 hour): ~6 fold
- Q10 in mitochondrial enriched sample (SK-MEL-28 mitochondria; 48 hr): 46.63 ng/Sample
- form of Q10 in mitochondria (SK-MEL-28 mitochondria; exogenous Q10 added to media): maintained in the supplied oxidized form
- levels of examined proteins (Western blot) (a variety of cell types): upregulated or downregulated
- Lactate Dehydrogenase Average Volume as a % ([1]; HepG2, 5g24-50, 2 Experiments): 64%
- Lactate Dehydrogenase Average Volume as a % ([1]; HepG2, 5g24-100, 2 Experiments): 106%
- Lactate Dehydrogenase Average Volume as a % ([1]; HepG2, 5g48-50, 2 Experiments): 112%
- Lactate Dehydrogenase Average Volume as a % ([1]; HepG2, 5g48-100, 2 Experiments): 121%
- Lactate Dehydrogenase Normalized Volume ([1]; HepG2, 5g-50, 24 h): 7900
- Lactate Dehydrogenase Normalized Volume ([1]; HepG2, 5g-50, 48 h): 5188
- Lactate Dehydrogenase Normalized Volume ([1]; HepG2, 5g-100, 24 h): 6616
- Lactate Dehydrogenase Normalized Volume ([1]; HepG2, 5g-100, 48 h): 7319
- Lactate Dehydrogenase Average Volume as a % ([1]; HepG2, 22G24-50, 2 Experiments): 121%
- Lactate Dehydrogenase Average Volume as a % ([1]; HepG2, 22G24-100, 2 Experiments): 144%
- Lactate Dehydrogenase Average Volume as a % ([1]; HepG2, 22G48-50, 2 Experiments): 95%
- Lactate Dehydrogenase Average Volume as a % ([1]; HepG2, 22G48-100, 2 Experiments): 67%
- Lactate Dehydrogenase Normalized Volume ([1]; HepG2, 22G-50, 24 h): 7550
- Lactate Dehydrogenase Normalized Volume ([1]; HepG2, 22G-50, 48 h): 6173
- Lactate Dehydrogenase Normalized Volume ([1]; HepG2, 22G-100, 24 h): 7124
- Lactate Dehydrogenase Normalized Volume ([1]; HepG2, 22G-100, 48 h): 9141
- Lactate Dehydrogenase Normalized Volume ([1]; PACA2, 5g-50, 24 h): 5068
- Lactate Dehydrogenase Normalized Volume ([1]; PACA2, 5g-50, 48 h): 2978
- Lactate Dehydrogenase Normalized Volume ([1]; PACA2, 5g-100, 24 h): 3675
- Lactate Dehydrogenase Normalized Volume ([1]; PACA2, 5g-100, 48 h): 2396
- Lactate Dehydrogenase Normalized Volume ([1]; PACA2, 22G-50, 24 h): 10218
- Lactate Dehydrogenase Normalized Volume ([1]; PACA2, 22G-50, 48 h): 2575
- Lactate Dehydrogenase Normalized Volume ([1]; PACA2, 22G-100, 24 h): 7158
- Lactate Dehydrogenase Normalized Volume ([1]; PACA2, 22G-100, 48 h): 3557
- Lactate Dehydrogenase (LDH) expression ([1]; cancer): reduced
- Lactate Dehydrogenase (LDH) expression ([1]; normal cells): minimal effect
